Source: patent US20170266186A1, “USE OF INHIBITORS OF BRUTON'S TYROSINE KINASE (BTK)” (Pharmacyclics LLC, priority 2011, published 2017)

tested on: cell lines; assay: combination of PCI-32765 with other drugs in cell lines; type: cell-based; details: not given

| Compound | interaction with PCI-32765 in combination |
| --- | --- |
| Nc1cccc2c1CN(C1CCC(=O)NC1=O)C2=O (stereo not shown) [lenalidomide] | weak synergy |
| COc1cccc2c1C(=O)c1c(O)c3c(c(O)c1C2=O)C[C@@](O)(C(=O)CO)C[C@@H]3O[C@H]1C[C@H](N)[C@H](O)[C@H](C)O1 [doxorubicin] | additivity |
| COc1cc(Nc2ncc(F)c(Nc3ccc4c(n3)NC(=O)C(C)(C)O4)n2)cc(OC)c1OC [Compound R-406] | weak synergy |
| Cn1c(CCCC(=O)O)nc2cc(N(CCCl)CCCl)ccc21 [bendamustine] | weak synergy |
| CC[C@]1(O)C[C@H]2CN(CCc3c([nH]c4ccccc34)[C@@](C(=O)OC)(c3cc4c(cc3OC)N(C=O)[C@H]3[C@@](O)(C(=O)OC)[C@H](OC(C)=O)[C@]5(CC)C=CCN6CC[C@]43[C@@H]65)C2)C1 [vincristine] | additivity |
| CO[C@H]1C[C@@H]2CC[C@@H](C)[C@@](O)(O2)C(=O)C(=O)N2CCCC[C@H]2C(=O)O[C@H]([C@H](C)C[C@@H]2CC[C@@H](OC(=O)C(C)(CO)CO)[C@H](OC)C2)CC(=O)[C@H](C)/C=C(\C)[C@@H](O)[C@@H](OC)C(=O)[C@H](C)C[C@H](C)/C=C/C=C/C=C/1C [temsirolimus] | additivity |
| CC(=O)O[C@H]1C(=O)[C@@]2(C)[C@H]([C@H](OC(=O)c3ccccc3)[C@]3(O)C[C@H](OC(=O)[C@H](O)[C@@H](NC(=O)c4ccccc4)c4ccccc4)C(C)=C1C3(C)C)[C@]1(OC(C)=O)CO[C@@H]1C[C@@H]2O [taxol] | additivity |
| N.N.O=C([O-])C1(C(=O)[O-])CCC1.[Pt+2] [carboplatin] | additivity |
| CN(C)Cc1c(C(=O)NCCOc2ccc(C(=O)NO)cc2)oc2ccccc12 [3-((dimethylamino)methyl)-N-(2-(4-(hydroxycarbamoyl)phenoxy)ethyl)benzofuran-2-carboxamide] | weak synergy |
| CC(C)C[C@H](NC(=O)[C@H](Cc1ccccc1)NC(=O)c1cnccn1)B(O)O [bortezomib] | weak synergy |
| Nc1ccn([C@@H]2O[C@H](CO)[C@@H](O)C2(F)F)c(=O)n1 [gemcitabine] | weak synergy |
| CNC(=O)c1cc(Oc2ccc(NC(=O)Nc3ccc(Cl)c(C(F)(F)F)c3)cc2)ccn1 [sorafenib] | weak synergy |

tested on: DLBCL xenograft; assay: combination drug testing in a DLBCL xenograft; type: in vivo; details: initial experiment in a DLBCL xenograft

| Compound | interaction with PCI-32765 in combination |
| --- | --- |
| CC(C)C[C@H](NC(=O)[C@H](Cc1ccccc1)NC(=O)c1cnccn1)B(O)O [bortezomib] | greater than additivity |
